According to US8969516B2, “Method of hydrolysis of peptide bond” (priority 2006, dated 2015):

Experiment: MALDI-TOF screening of Ni^2+ dependent hydrolysis in a combinatorial peptide library
Format: physicochemical
Details: CH3CO-Gly-Ala-Thr-X-His-Z-Lys-Phe-Leu-NH2 library, Ni^2+ 2 mM, pH 8.2, 10 mM Tris, score=24/tm
Summary of the method: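 MALDI-TOF spectra taken at 2, 4, 6 and 8 h tracked the appearance of Ser/Thr-X-His-Z-Lys-Phe-Leu-NH2 cleavage products and the fall in substrate signals. Reactions: 1 mM peptide mixture, 2 mM Ni^2+, 10 mM Tris pH 8.2, at 37 or 45 °C; X/Z substitutions ranked by summed scores.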

| Substance | hydrolysis score from MALDI-TOF screening (37° C.) | hydrolysis score from MALDI-TOF screening (45° C.) |
| --- | --- | --- |
| Ac-GATKHSKFL-NH2 [TKHS] | 0 (a score of 0 if no trace of the product of hydrolysis was seen after 8 hours of incubation) | 0 (a score of 0 if no trace of the product of hydrolysis was seen after 8 hours of incubation) |
| Ac-GATKHTKFL-NH2 [TKHT] | 0 (a score of 0 if no trace of the product of hydrolysis was seen after 8 hours of incubation) | 0 (a score of 0 if no trace of the product of hydrolysis was seen after 8 hours of incubation) |
| Ac-GATKHVKFL-NH2 [TKHV] | 3 (a score of 3 for detection at 8 hours) | 6 (a score of 6 for detection at 4 hours) |
| Ac-GATKHWKFL-NH2 [TKHW] | 6 (a score of 6 for detection at 4 hours) | 12 (a score of 12, if it was seen to be partially hydrolysed at 2 hours) |
| Ac-GATKHYKFL-NH2 [TKHY] | 3 (a score of 3 for detection at 8 hours) | 6 (a score of 6 for detection at 4 hours) |
| Ac-GATLHAKFL-NH2 [TLHA] | 0 (a score of 0 if no trace of the product of hydrolysis was seen after 8 hours of incubation) | 0 (a score of 0 if no trace of the product of hydrolysis was seen after 8 hours of incubation) |
| Ac-GATLHDKFL-NH2 [TLHD] | 0 (a score of 0 if no trace of the product of hydrolysis was seen after 8 hours of incubation) | 0 (a score of 0 if no trace of the product of hydrolysis was seen after 8 hours of incubation) |
| Ac-GATLHEKFL-NH2 [TLHE] | 0 (a score of 0 if no trace of the product of hydrolysis was seen after 8 hours of incubation) | 0 (a score of 0 if no trace of the product of hydrolysis was seen after 8 hours of incubation) |
| Ac-GATLHFKFL-NH2 [TLHF] | 0 (a score of 0 if no trace of the product of hydrolysis was seen after 8 hours of incubation) | 0 (a score of 0 if no trace of the product of hydrolysis was seen after 8 hours of incubation) |
| Ac-GATLHGKFL-NH2 [TLHG] | 0 (a score of 0 if no trace of the product of hydrolysis was seen after 8 hours of incubation) | 0 (a score of 0 if no trace of the product of hydrolysis was seen after 8 hours of incubation) |
| Ac-GATLHHKFL-NH2 [TLHH] | 0 (a score of 0 if no trace of the product of hydrolysis was seen after 8 hours of incubation) | 0 (a score of 0 if no trace of the product of hydrolysis was seen after 8 hours of incubation) |
| Ac-GATLHIKFL-NH2 [TLHI] | 0 (a score of 0 if no trace of the product of hydrolysis was seen after 8 hours of incubation) | 0 (a score of 0 if no trace of the product of hydrolysis was seen after 8 hours of incubation) |
| Ac-GATLHKKFL-NH2 [TLHK] | 0 (a score of 0 if no trace of the product of hydrolysis was seen after 8 hours of incubation) | 3 (a score of 3 for detection at 8 hours) |
| Ac-GATLHLKFL-NH2 [TLHL] | 0 (a score of 0 if no trace of the product of hydrolysis was seen after 8 hours of incubation) | 0 (a score of 0 if no trace of the product of hydrolysis was seen after 8 hours of incubation) |
| Ac-GATLHMKFL-NH2 [TLHM] | 0 (a score of 0 if no trace of the product of hydrolysis was seen after 8 hours of incubation) | 0 (a score of 0 if no trace of the product of hydrolysis was seen after 8 hours of incubation) |
| Ac-GATLHNKFL-NH2 [TLHN] | 0 (a score of 0 if no trace of the product of hydrolysis was seen after 8 hours of incubation) | 0 (a score of 0 if no trace of the product of hydrolysis was seen after 8 hours of incubation) |
| Ac-GATLHPKFL-NH2 [TLHP] | 0 (a score of 0 if no trace of the product of hydrolysis was seen after 8 hours of incubation) | 0 (a score of 0 if no trace of the product of hydrolysis was seen after 8 hours of incubation) |
| Ac-GATLHQKFL-NH2 [TLHQ] | 0 (a score of 0 if no trace of the product of hydrolysis was seen after 8 hours of incubation) | 0 (a score of 0 if no trace of the product of hydrolysis was seen after 8 hours of incubation) |
| Ac-GATLHRKFL-NH2 [TLHR] | 0 (a score of 0 if no trace of the product of hydrolysis was seen after 8 hours of incubation) | 3 (a score of 3 for detection at 8 hours) |
| Ac-GATLHSKFL-NH2 [TLHS] | 0 (a score of 0 if no trace of the product of hydrolysis was seen after 8 hours of incubation) | 0 (a score of 0 if no trace of the product of hydrolysis was seen after 8 hours of incubation) |
| Ac-GATLHTKFL-NH2 [TLHT] | 0 (a score of 0 if no trace of the product of hydrolysis was seen after 8 hours of incubation) | 0 (a score of 0 if no trace of the product of hydrolysis was seen after 8 hours of incubation) |
| Ac-GATLHVKFL-NH2 [TLHV] | 0 (a score of 0 if no trace of the product of hydrolysis was seen after 8 hours of incubation) | 0 (a score of 0 if no trace of the product of hydrolysis was seen after 8 hours of incubation) |
| Ac-GATLHWKFL-NH2 [TLHW] | 3 (a score of 3 for detection at 8 hours) | 3 (a score of 3 for detection at 8 hours) |
| Ac-GATLHYKFL-NH2 [TLHY] | 0 (a score of 0 if no trace of the product of hydrolysis was seen after 8 hours of incubation) | 0 (a score of 0 if no trace of the product of hydrolysis was seen after 8 hours of incubation) |
| Ac-GATMHAKFL-NH2 [TMHA] | 0 (a score of 0 if no trace of the product of hydrolysis was seen after 8 hours of incubation) | 0 (a score of 0 if no trace of the product of hydrolysis was seen after 8 hours of incubation) |
| Ac-GATMHDKFL-NH2 [TMHD] | 0 (a score of 0 if no trace of the product of hydrolysis was seen after 8 hours of incubation) | 0 (a score of 0 if no trace of the product of hydrolysis was seen after 8 hours of incubation) |
